We go through 18 compounds from ChEMBL document CHEMBL1134498, “Experimental and computational screening models for the prediction of intestinal drug absorption” (J Med Chem, 2001).

Where a SMILES comes first, the peptide text is derived from it.

A short description of data set [1]: Cellular permeability (Pc) (Caco-2 cell monolayer). It is filed as ADME. Particulars: human, read-out: Pc.
Another data set is filed under the species Homo sapiens. Briefly: Ratio of [(apical to basal)/(basal to apical)] (Caco-2 cell monolayer). It is filed as ADME.
Data set [2] in a line: Apparent permeability coefficient (Papp) (Caco-2 cell monolayer). It is filed as ADME, cell-based. The conditions noted are these: human. (Caco-2 monolayers are a common model of the intestinal barrier.)

On to `CCCc1nn(C)c2c(=O)[nH]c(-c3cc(S(=O)(=O)N4CCN(C)CC4)ccc3OCC)nc12`, for which the Papp in data set [1] turned out to be 87 ×10⁻⁶ cm/s; in data set [2], 48 ×10⁻⁶ cm/s. Besides, the Ratio in the data set filed under Homo sapiens was 0.83.

Regarding `OC[C@@H](O)[C@@H](O)[C@H](O)[C@H](O)CO` [MANNITOL], the values for the Papp in data set [1] and in data set [2] were 0.19 ×10⁻⁶ cm/s and 0.11 ×10⁻⁶ cm/s, respectively. Further, the Ratio in the data set filed under Homo sapiens was 0.89.

In the case of `C[C@H](NC(=O)[C@@H](N)Cc1ccc(O)cc1)C(=O)N[C@@H](Cc1ccccc1)C(=O)N[C@@H](Cc1ccccc1)C(N)=O` (H-YAFF-NH2), the values for the Papp in data set [1] and in data set [2] were 0.022 ×10⁻⁶ cm/s and 0.04 ×10⁻⁶ cm/s, respectively.

As to `COCCc1ccc(OCC(O)CNC(C)C)cc1` (stereo unspecified) [METOPROLOL], in the data set listed under Homo sapiens, the Ratio stood at 1. In data set [2], the Papp worked out at 64 ×10⁻⁶ cm/s.

As to `N=C(N)NC(=O)c1nc(Cl)c(N)nc1N` [AMILORIDE], the values for the Papp in data set [1] and in data set [2] were 0.78 ×10⁻⁶ cm/s and 0.56 ×10⁻⁶ cm/s, respectively.

As to `OC[C@H]1O[C@@H](O[C@@H]2[C@@H](CO)O[C@](O)(CO)[C@H]2O)[C@H](O)[C@@H](O)[C@H]1O` [LACTULOSE], the Papp was 0.27 ×10⁻⁶ cm/s in data set [1] and 0.3 ×10⁻⁶ cm/s in data set [2]. In the data set listed under Homo sapiens, the Ratio amounted to 1.4.

In the case of `O=C(O)P(=O)(O)O` [FOSCARNET], the Papp in data set [1] is 0.05 ×10⁻⁶ cm/s; in data set [2], 0.045 ×10⁻⁶ cm/s. For the same compound, the Ratio in the data set listed under Homo sapiens is 0.65.

Regarding `O=C(O)c1cc(/N=N/c2ccc(S(=O)(=O)Nc3ccccn3)cc2)ccc1O` [SULFASALAZINE], the Papp in data set [1] and in data set [2] was 0.16 ×10⁻⁶ cm/s each time. The Ratio in the data set filed under Homo sapiens worked out at 0.087.

Turning to `NC(=O)[C@H](Cc1ccccc1)NC(=O)[C@H](Cc1ccccc1)NC(=O)[C@H](CCCN=C(N)N)NC(=O)[C@@H](N)Cc1ccc(O)cc1` (H-YRFF-NH2), the Papp in data set [1] stood at 0.023 ×10⁻⁶ cm/s; in data set [2], 0.037 ×10⁻⁶ cm/s. In addition, in the data set listed under Homo sapiens, the Ratio was 0.41.

For `C=CCc1ccccc1OCC(O)CNC(C)C` (stereo unspecified) [ALPRENOLOL], the Ratio in the data set listed under Homo sapiens was ~ 1. In data set [2], the Papp was found to be 88 ×10⁻⁶ cm/s.

Consider `CN/C(=N/CCSCc1nc[nH]c1C)NC#N` [CIMETIDINE], for which the Papp stood at 1.2 ×10⁻⁶ cm/s in data set [1] and 1.23 ×10⁻⁶ cm/s in data set [2]. The Ratio in the data set filed under Homo sapiens was determined as 1.8.

Take `CCN1CCCC1CNC(=O)c1cc(S(N)(=O)=O)ccc1OC` (stereo unspecified) [SULPIRIDE]: the figures for the Papp in data set [1] and in data set [2] were 0.39 ×10⁻⁶ cm/s and 0.23 ×10⁻⁶ cm/s, respectively.

As for `Cc1ccccc1N1C(=O)c2cc(S(N)(=O)=O)c(Cl)cc2NC1C` (stereo unspecified) [METOLAZONE], the Papp amounted to 6.1 ×10⁻⁶ cm/s in data set [1] and 6.2 ×10⁻⁶ cm/s in data set [2]. The Ratio in the data set listed under Homo sapiens is listed as 0.64.

Regarding `Cc1cc(=O)n(-c2ccccc2)n1C` [ANTIPYRINE], the Papp came to 215 ×10⁻⁶ cm/s in data set [1] and 77 ×10⁻⁶ cm/s in data set [2]. The Ratio in the data set filed under Homo sapiens was 1.1.

In the case of `C=CCOc1ccccc1OCC(O)CNC(C)C` (stereo unspecified) [OXPRENOLOL], the Ratio in the data set filed under Homo sapiens is ~ 1. Also, the Papp in data set [2] stood at 61 ×10⁻⁶ cm/s.

`CC(=O)Nc1ccc(OCC(O)CNC(C)C)cc1` (stereo unspecified) [PRACTOLOL]: in the data set filed under Homo sapiens, the Ratio was ~ 1. In data set [2], the Papp came out at 1.8 ×10⁻⁶ cm/s.

Regarding `CC(C)NCC(O)COc1cccc2[nH]ccc12` (stereo unspecified) [PINDOLOL], the Ratio in the data set listed under Homo sapiens is listed as ~ 1. Besides, the Papp in data set [2] stood at 36 ×10⁻⁶ cm/s.

For the compound `OC[C@H]1O[C@H](OC[C@H]2O[C@H](O[C@]3(CO)O[C@H](CO)[C@@H](O)[C@@H]3O)[C@H](O)[C@@H](O)[C@@H]2O)[C@H](O)[C@@H](O)[C@H]1O` [RAFFINOSE], the Papp came out at 0.047 ×10⁻⁶ cm/s in data set [1] and 0.051 ×10⁻⁶ cm/s in data set [2]. For the same compound, the Ratio in the data set filed under Homo sapiens was found to be 1.2.
